What all share (experiment): relative viability (nuclei count vs DMSO), 5 days (fraction); higher = more cells survive
Compound in test [1]: CC(C)C[C@H](NC(=O)[C@H](Cc1ccccc1)NC(=O)c1cnccn1)B(O)O [Bortezomib] + CS(=O)(=O)CCNCc1ccc(-c2ccc3ncnc(Nc4ccc(OCc5cccc(F)c5)c(Cl)c4)c3c2)o1 [Lapatinib] (partner 2 µM)
The essentials:
(§1)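 Five library-drug doses in √10 steps were combined with a fixed anchor-drug dose, or a single drug was given alone, by pin tool to lung cancer cell lines in 1536-well plates the day after seeding. Nuclei were stained and counted after 5 days. Relative viability is the nuclei count in treated wells over that in vehicle wells, taken as the median of duplicate plates.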

Compound in test [2]: CC(C)C[C@H](NC(=O)[C@H](Cc1ccccc1)NC(=O)c1cnccn1)B(O)O [Bortezomib] + Cc1nc(NC(=O)N2CCC[C@H]2C(N)=O)sc1-c1ccnc(C(C)(C)C(F)(F)F)c1 [Alpelisib] (partner 2 µM)
The essentials: as §1

Compound in test [3]: COC1=CC(c2cc3ccccc3[nH]2)=N/C1=C\c1[nH]c(C)cc1C [Obatoclax] + Cc1nc(NC(=O)N2CCC[C@H]2C(N)=O)sc1-c1ccnc(C(C)(C)C(F)(F)F)c1 [Alpelisib] (partner 2 µM)
The essentials: as §1

Compound in test [4]: COC1=CC(c2cc3ccccc3[nH]2)=N/C1=C\c1[nH]c(C)cc1C [Obatoclax] + Cc1nc(Nc2ncc(C(=O)Nc3c(C)cccc3Cl)s2)cc(N2CCN(CCO)CC2)n1 [Dasatinib] (partner 0.075 µM)
The method, boiled down: as §1

NCI-H1666: the relative viability in test [1] (first compound 0.0002 µM) amounted to 0.611; in test [1] (first compound 0.000632 µM), 0.883; in test [1] (first compound 0.002 µM), 0.841; in test [1] (first compound 0.006325 µM), 0.194; in test [1] (first compound 0.02 µM), 0.187; in test [2] (first compound 0.0002 µM) it was 1.04. Moreover, the relative viability worked out at 0.98 in test [2] (first compound 0.000632 µM); 1.04 in test [2] (first compound 0.002 µM); 0.232 in test [2] (first compound 0.006325 µM); 0.217 in test [2] (first compound 0.02 µM); 0.93 in test [3] (first compound 0.01 µM); 0.903 in test [3] (first compound 0.03162 µM). For the same cell line, the relative viability was found to be 0.881 in test [3] (first compound 0.1 µM); 0.255 in test [3] (first compound 0.3162 µM); 0.223 in test [3] (first compound 1 µM); 0.819 in test [4] (first compound 0.01 µM); 0.809 in test [4] (first compound 0.03162 µM); 0.727 in test [4] (first compound 0.1 µM). Moreover, the relative viability in test [4] (first compound 0.3162 µM) was 0.496; in test [4] (first compound 1 µM), 0.418.
With A-427, the relative viability in test [1] (first compound 0.0002 µM) was 1.05; in test [1] (first compound 0.000632 µM), 0.975; in test [1] (first compound 0.002 µM), 1.11; in test [1] (first compound 0.006325 µM) it was 1.02; in test [1] (first compound 0.02 µM) it was 0.19; in test [2] (first compound 0.0002 µM) it was 0.991. For the same cell line, the relative viability is 1.03 in test [2] (first compound 0.000632 µM); 1.05 in test [2] (first compound 0.002 µM); 1.11 in test [2] (first compound 0.006325 µM); 0.0762 in test [2] (first compound 0.02 µM); 1.14 in test [3] (first compound 0.01 µM); 1.09 in test [3] (first compound 0.03162 µM). For the same cell line, the relative viability stood at 1.13 in test [3] (first compound 0.1 µM); 1.04 in test [3] (first compound 0.3162 µM); 1.01 in test [3] (first compound 1 µM); 0.719 in test [4] (first compound 0.01 µM); 0.687 in test [4] (first compound 0.03162 µM); 0.462 in test [4] (first compound 0.1 µM). For the same cell line, the relative viability turned out to be 0.6 in test [4] (first compound 0.3162 µM) and 0.271 in test [4] (first compound 1 µM).
On to NCI-H358, for which the relative viability in test [1] (first compound 0.0002 µM) stood at 0.367; in test [1] (first compound 0.000632 µM) it was 0.431; in test [1] (first compound 0.002 µM) it was 0.43; in test [1] (first compound 0.006325 µM) it was 0.144; in test [1] (first compound 0.02 µM), 0.155; in test [2] (first compound 0.0002 µM), 0.782. The relative viability stood at 0.873 in test [2] (first compound 0.000632 µM); 0.613 in test [2] (first compound 0.002 µM); 0.161 in test [2] (first compound 0.006325 µM); 0.162 in test [2] (first compound 0.02 µM); 0.925 in test [3] (first compound 0.01 µM); 0.848 in test [3] (first compound 0.03162 µM). Besides, the relative viability in test [3] (first compound 0.1 µM) turned out to be 0.635; in test [3] (first compound 0.3162 µM) it was 0.336; in test [3] (first compound 1 µM) it was 0.283; in test [4] (first compound 0.01 µM), 0.142; in test [4] (first compound 0.03162 µM), 0.193; in test [4] (first compound 0.1 µM) it was 0.218. Also, the relative viability was found to be 0.132 in test [4] (first compound 0.3162 µM) and 0.114 in test [4] (first compound 1 µM).
Turning to NCI-H1651, the relative viability in test [1] (first compound 0.0002 µM) came to 0.709; in test [1] (first compound 0.000632 µM), 0.74; in test [1] (first compound 0.002 µM) it was 0.301; in test [1] (first compound 0.006325 µM), 0.128; in test [1] (first compound 0.02 µM), 0.103; in test [2] (first compound 0.0002 µM) it was 1. For the same cell line, the relative viability was found to be 0.87 in test [2] (first compound 0.000632 µM); 0.748 in test [2] (first compound 0.002 µM); 0.114 in test [2] (first compound 0.006325 µM); 0.0938 in test [2] (first compound 0.02 µM); 0.884 in test [3] (first compound 0.01 µM); 0.765 in test [3] (first compound 0.03162 µM). For the same cell line, the relative viability in test [3] (first compound 0.1 µM) was found to be 1.04; in test [3] (first compound 0.3162 µM), 0.611; in test [3] (first compound 1 µM), 0.236; in test [4] (first compound 0.01 µM), 0.563; in test [4] (first compound 0.03162 µM), 0.376; in test [4] (first compound 0.1 µM), 0.372. Moreover, the relative viability in test [4] (first compound 0.3162 µM) came to 0.293; in test [4] (first compound 1 µM), 0.187.
NCI-H520: the relative viability in test [1] (first compound 0.0002 µM) came out at 0.91; in test [1] (first compound 0.000632 µM) it was 0.857; in test [1] (first compound 0.002 µM), 0.271; in test [1] (first compound 0.006325 µM) it was 0.108; in test [1] (first compound 0.02 µM) it was 0.128; in test [2] (first compound 0.0002 µM), 0.981. Moreover, the relative viability in test [2] (first compound 0.000632 µM) worked out at 0.935; in test [2] (first compound 0.002 µM), 0.91; in test [2] (first compound 0.006325 µM), 0.155; in test [2] (first compound 0.02 µM), 0.135; in test [3] (first compound 0.01 µM) it was 0.901; in test [3] (first compound 0.03162 µM) it was 0.953. Also, the relative viability stood at 0.92 in test [3] (first compound 0.1 µM); 0.7 in test [3] (first compound 0.3162 µM); 0.835 in test [3] (first compound 1 µM); 0.196 in test [4] (first compound 0.01 µM); 0.214 in test [4] (first compound 0.03162 µM); 0.205 in test [4] (first compound 0.1 µM). Also, the relative viability in test [4] (first compound 0.3162 µM) was 0.22; in test [4] (first compound 1 µM) it was 0.194.
In the case of 201T, the relative viability in test [1] (first compound 0.0002 µM) was 1.01; in test [1] (first compound 0.000632 µM), 0.99; in test [1] (first compound 0.002 µM), 1.06; in test [1] (first compound 0.006325 µM) it was 1.05; in test [1] (first compound 0.02 µM), 0.512; in test [2] (first compound 0.0002 µM) it was 1.03. Further, the relative viability in test [2] (first compound 0.000632 µM) turned out to be 0.993; in test [2] (first compound 0.002 µM), 0.975; in test [2] (first compound 0.006325 µM) it was 0.951; in test [2] (first compound 0.02 µM) it was 0.31; in test [3] (first compound 0.01 µM) it was 1; in test [3] (first compound 0.03162 µM) it was 0.983. For the same cell line, the relative viability was found to be 1.02 in test [3] (first compound 0.1 µM); 1.04 in test [3] (first compound 0.3162 µM); 1.08 in test [3] (first compound 1 µM); 0.599 in test [4] (first compound 0.01 µM); 0.412 in test [4] (first compound 0.03162 µM); 0.588 in test [4] (first compound 0.1 µM). Besides, the values for the relative viability in test [4] (first compound 0.3162 µM) and in test [4] (first compound 1 µM) were 0.569 and 0.6, respectively.
Take NCI-H460: the relative viability in test [1] (first compound 0.0002 µM) came out at 0.879; in test [1] (first compound 0.000632 µM), 0.975; in test [1] (first compound 0.002 µM), 1.03; in test [1] (first compound 0.006325 µM), 0.0212; in test [1] (first compound 0.02 µM), 0.014; in test [2] (first compound 0.0002 µM), 0.419. The relative viability in test [2] (first compound 0.000632 µM) turned out to be 0.455; in test [2] (first compound 0.002 µM), 0.515; in test [2] (first compound 0.006325 µM), 0.125; in test [2] (first compound 0.02 µM), 0.0093; in test [3] (first compound 0.01 µM), 0.509; in test [3] (first compound 0.03162 µM), 0.481. In addition, the relative viability in test [3] (first compound 0.1 µM) was determined as 0.309; in test [3] (first compound 0.3162 µM) it was 0.0452; in test [3] (first compound 1 µM), 0.0244; in test [4] (first compound 0.01 µM) it was 0.497; in test [4] (first compound 0.03162 µM) it was 0.385; in test [4] (first compound 0.1 µM), 0.384. Besides, the values for the relative viability in test [4] (first compound 0.3162 µM) and in test [4] (first compound 1 µM) were 0.343 and 0.21, respectively.

For the origin of these results see the supplement of paper PMC10307832.
